test system: not given; assay: not given; set-up: species or system male ICR mice; conditions: mouse, in vivo, po, 10080 min
Description: Male ICR mice (6 weeks, 3 mice per group) fasted for 16 hours were used ad libitum). A test compound suspended in 5% aqueous gum arabic solution was orally administered. After administration, mortality of the animals observed during 7 days and approximate lethal dose was determined.

Structure (SMILES)	Approximate lethal dose
Cc1ccccc1-c1nc2c3ccccc3ccn2c1N [Compound 3, 3-Amino-2-(2-methylphenyl)imidazo[2,1-a]isoquinoline]	> 2,000 mg/kg
CCNc1c(-c2ccccc2C)nc2c3ccccc3ccn12 [Compound 158, 3-Ethylamino-2-(2-methylphenyl)imidazo[2,1-a]isoquinoline]	> 2,000 mg/kg
CCNc1c(-c2ccccc2C)nc2c3ccccc3c(OC)cn12 [Compound 166, 3-Ethylamino-6-methoxy-2-(2-methylphenyl)imidazo[2,1-a]isoquinoline]	> 2,000 mg/kg
C=CCNc1c(-c2ccccc2C)nc2c3ccccc3ccn12 [Compound 221, 3-allylamino-2-(2-methylphenyl)imidazo[2,1-a]isoquinoline]	> 2,000 mg/kg
C=CCN(CC)c1c(-c2ccccc2C)nc2c3ccccc3ccn12 [Compound 222, 3-(N-Allyl-N-ethylamino)-2-(2-methylphenyl)imidazo[2,1-a]isoquinoline]	> 2,000 mg/kg

test system: gastric acid secretion; assay: Inhibition of Gastric Acid Secretion Observed Under Acute Fistula Method; format: in vivo, male Wistar rats; conditions: Rattus norvegicus; 30 mg/kg intraduodenally, rats, histamine 10 mg/kg s.c., cumulative 2 h
Description: Inhibition of Gastric Acid Secretion Observed Under Acute Fistula Method
Male Wistar rats (6-8 weeks) fasted for 24 hours (water ad libitum) were used. The rats were anesthetized by intraperitoneal administration of 1.25 g/kg of urethane. The abdomen was incised, and acute gastric fistula was connected to the stomach. Two ml of saline was injected into the stomach, and recovered every 20 minutes. The gastric acid secretion was determined by titrating of gastric juice by 150 mM sodium hydroxide up to pH7.0 using an autotitrator. Test compounds (30 mg/kg) suspended in a 0.5% aqueous sodium carboxymethylcellulose (CMC-Na) solution were administered intraduodenally. After 1 hour, gastric acid secretion was stimulated by subcutaneous administration of histamine dihydrochloride dissolved in saline (10 mg/kg). Inhibition (%) of gastric acid secretion was determined by calculating cumulative amount of the acid secretion during two hours after histamine stimulation and then comparing the cumulative amount with that in the control group. In the control group, only 0.5% aqueous CMC-Na solution was administered intraduodenally.

Structure (SMILES)	inhibition in vivo at 30 mg/kg [%]
Cc1ccccc1-c1nc2c3ccccc3ccn2c1N [Compound 3, 3-Amino-2-(2-methylphenyl)imidazo[2,1-a]isoquinoline]	82.2
CCNc1c(-c2ccccc2C)nc2c3ccccc3ccn12 [Compound 158, 3-Ethylamino-2-(2-methylphenyl)imidazo[2,1-a]isoquinoline]	83.6
CCNc1c(-c2ccccc2C)nc2c3ccccc3c(OC)cn12 [Compound 166, 3-Ethylamino-6-methoxy-2-(2-methylphenyl)imidazo[2,1-a]isoquinoline]	54.9
C=CCNc1c(-c2ccccc2C)nc2c3ccccc3ccn12 [Compound 221, 3-allylamino-2-(2-methylphenyl)imidazo[2,1-a]isoquinoline]	66.7
C=CCN(CC)c1c(-c2ccccc2C)nc2c3ccccc3ccn12 [Compound 222, 3-(N-Allyl-N-ethylamino)-2-(2-methylphenyl)imidazo[2,1-a]isoquinoline]	72.6

test system: gastric acid secretion; assay: Inhibition of Gastric Acid Secretion Observed Under Stomach Perfusion Method; format: in vivo, male Sprague Dawrey rats; conditions: Rattus norvegicus, ip, 1 h; rats, histamine i.v. 8 mg/kg/hr, inhibition one hour after administration (1-10 mg/kg, "intrapenetorially"); read-out: ID50 (dose showing 50% inhibition of acid secretion)
Description: Inhibition of Gastric Acid Secretion Observed Under Stomach Perfusion Method
Male Sprague Dawrey rats (6-7weeks) fasted for 24 hours were used (water ad libitum). The rats were anesthetized by intraperitoneal administration of 1.25 g/kg of urethane. The abdomen was incised, and gastral cavity was perfused with saline during experiment. The perfusate was titrated by 10 mM sodium hydroxide up to pH5.5 using an autotitrator in accordance with Stat-method. Gastric acid secretion was stimulated by intravenous administration of histamine dihydrochloride (8 mg/kg/hr). Two hours after histamine stimulation, a test compound 1-10 mg/kg) was administered intrapenetorially. The test compound was mixed with small amount of polysorbate-80, and the mixture was suspended in saline. The test compound was evaluated using ID50 (dose showing 50% inhibition of acid secretion) which was calculated based on inhibition of the acid secretion observed one hour after administration of the compound.

Structure (SMILES)	ED50 [mg/kg]
Cc1ccccc1-c1nc2c3ccccc3ccn2c1N [Compound 3, 3-Amino-2-(2-methylphenyl)imidazo[2,1-a]isoquinoline]	3.4
CCNc1c(-c2ccccc2C)nc2c3ccccc3ccn12 [Compound 158, 3-Ethylamino-2-(2-methylphenyl)imidazo[2,1-a]isoquinoline]	8.6

target: T1, H^+ /K^+ -ATPase (Sus scrofa, UniProt P19156); assay: Inhibitory Action on H^+ /K^+ -ATPase Activity; format: biochemical; conditions: microsome fraction from porcine gastric mucosa, pH7.4, 37° C., 30 min preincubation, 15 min reaction
T1 construct: a microsome fraction prepared from porcine gastric mucosa was used as a standard enzyme; from tissue; host or cells: porcine gastric mucosa, microsome fraction
T1 sequence (P19156 2-1034 limits assumed): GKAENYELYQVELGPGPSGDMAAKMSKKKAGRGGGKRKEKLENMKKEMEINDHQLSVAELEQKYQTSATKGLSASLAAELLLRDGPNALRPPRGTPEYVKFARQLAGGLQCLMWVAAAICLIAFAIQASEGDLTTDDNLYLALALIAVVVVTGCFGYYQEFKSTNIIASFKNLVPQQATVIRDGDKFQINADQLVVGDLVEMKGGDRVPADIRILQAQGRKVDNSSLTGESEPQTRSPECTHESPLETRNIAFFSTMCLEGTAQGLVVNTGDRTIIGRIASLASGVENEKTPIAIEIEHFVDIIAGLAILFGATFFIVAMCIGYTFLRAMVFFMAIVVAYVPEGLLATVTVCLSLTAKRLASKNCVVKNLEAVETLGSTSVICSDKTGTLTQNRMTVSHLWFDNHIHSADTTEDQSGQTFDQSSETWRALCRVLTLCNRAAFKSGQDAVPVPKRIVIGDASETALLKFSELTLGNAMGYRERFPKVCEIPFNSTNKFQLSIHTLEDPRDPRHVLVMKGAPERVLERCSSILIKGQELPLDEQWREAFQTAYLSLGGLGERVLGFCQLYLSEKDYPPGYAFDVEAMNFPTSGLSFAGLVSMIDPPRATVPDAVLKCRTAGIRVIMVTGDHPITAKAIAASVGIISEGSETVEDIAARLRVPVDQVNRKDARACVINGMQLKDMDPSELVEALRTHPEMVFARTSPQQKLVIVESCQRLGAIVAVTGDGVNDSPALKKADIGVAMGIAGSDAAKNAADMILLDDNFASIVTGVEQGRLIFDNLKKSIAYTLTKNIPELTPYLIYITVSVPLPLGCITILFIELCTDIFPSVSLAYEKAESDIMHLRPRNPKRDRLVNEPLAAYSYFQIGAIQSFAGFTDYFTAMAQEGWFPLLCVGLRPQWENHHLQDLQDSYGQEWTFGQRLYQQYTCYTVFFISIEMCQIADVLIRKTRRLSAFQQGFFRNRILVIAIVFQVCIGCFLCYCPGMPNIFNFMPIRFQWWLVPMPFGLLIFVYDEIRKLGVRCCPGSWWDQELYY
T1 sequence (P18434 whole entry partner): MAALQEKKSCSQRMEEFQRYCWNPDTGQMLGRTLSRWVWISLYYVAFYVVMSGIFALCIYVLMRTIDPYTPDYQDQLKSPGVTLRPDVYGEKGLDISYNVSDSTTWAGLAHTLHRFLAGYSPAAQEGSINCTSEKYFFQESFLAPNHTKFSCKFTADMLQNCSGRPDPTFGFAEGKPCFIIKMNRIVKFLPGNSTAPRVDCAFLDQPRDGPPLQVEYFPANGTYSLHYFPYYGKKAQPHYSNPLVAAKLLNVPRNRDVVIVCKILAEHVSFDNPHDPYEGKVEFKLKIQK
Description: Inhibitory Action on H^+ /K^+ -ATPase Activity
According to the method of Hongo et al. [The Japanese Journal of Pharmacology, 52, p295, (1990)], a microsome fraction prepared from porcine gastric mucosa was used as a standard enzyme. The standard enzyme (10-20lig protein) and the test compound (0.1-100 μM) dissolved in dimethylsulfoxide was incubated at 37° C. for 30 minutes in the 50 mM Tris-acetate buffer (pH7.4, containing 2 mM magnesium chloride, 5 mM potassium chloride). The enzyme reaction was started by adding adenosinetriphosphate (ATP). Tris at the final concentration of 2 mM, and the reaction was kept at 37° C. for 15 minutes. The reaction was stopped by adding chilled 10% trichloroacetic acid. Inorganic phosphate released during the reaction was calorimetrically determined according to the method of Fiske-Subbarow [The Journal of Biological Chemistry, 66, p375, (1925)]. H^+ /K^+ -ATPase activity was determined by the difference of the enzyme activities under the conditions with or without potassium chloride. The inhibitory activities of test compounds were determined as the 50% inhibitory concentration (IC50 value) from reaction-concentration curve, and the results are shown in Table 3.

Structure (SMILES)	IC50 [µM]
Cc1ccccc1-c1nc2c3ccccc3ccn2c1N [Compound 3, 3-Amino-2-(2-methylphenyl)imidazo[2,1-a]isoquinoline]	26
CCNc1c(-c2ccccc2C)nc2c3ccccc3ccn12 [Compound 158, 3-Ethylamino-2-(2-methylphenyl)imidazo[2,1-a]isoquinoline]	13
CCNc1c(-c2ccccc2C)nc2c3ccccc3c(OC)cn12 [Compound 166, 3-Ethylamino-6-methoxy-2-(2-methylphenyl)imidazo[2,1-a]isoquinoline]	23
C=CCN(CC)c1c(-c2ccccc2C)nc2c3ccccc3ccn12 [Compound 222, 3-(N-Allyl-N-ethylamino)-2-(2-methylphenyl)imidazo[2,1-a]isoquinoline]	2

test system: ethanol-induced gastric lesion; assay: Inhibition of Ethanol-induced Gastric Lesion (Protection of gastric mucosa); format: in vivo, male Wister rats; conditions: Rattus norvegicus, po, 1 h; 30 mg/kg orally, rats, ethanol 0.5 ml/100 g
Description: Inhibition of Ethanol-induced Gastric Lesion (Protection of gastric mucosa)
Male Wister rats (6-7weeks, 5 rats per group) fasted for 24 hours were used (water ad libitum). Test compound (30 mg/kg) suspended in 0.5% aqueous CMC-Na solution was orally administered. In the control group, only 0.5% aqueous CMC-Na solution was administered. Thirty minutes after administration, 0.5 ml/100 g body weight of ethanol was orally administered to cause gastric lesion. After one hour, the rat was killed by excessive amount of ether, and the stomach was removed and fixed with 2% formalin. After fixation, the stomach was dissected along the large curvature. The size of each of mucosal lesions was measured under dissecting microscope, and the total size of the lesions per rat was determined and used as ulcer index (mm). Inhibition of gastric lesion was determined by comparing the ulcer index in the control group and test group.

Structure (SMILES)	inhibition in vivo at 30 mg/kg [%]
Cc1ccccc1-c1nc2c3ccccc3ccn2c1N [Compound 3, 3-Amino-2-(2-methylphenyl)imidazo[2,1-a]isoquinoline]	73.5
CCNc1c(-c2ccccc2C)nc2c3ccccc3ccn12 [Compound 158, 3-Ethylamino-2-(2-methylphenyl)imidazo[2,1-a]isoquinoline]	92.4
CCNc1c(-c2ccccc2C)nc2c3ccccc3c(OC)cn12 [Compound 166, 3-Ethylamino-6-methoxy-2-(2-methylphenyl)imidazo[2,1-a]isoquinoline]	49.7
C=CCNc1c(-c2ccccc2C)nc2c3ccccc3ccn12 [Compound 221, 3-allylamino-2-(2-methylphenyl)imidazo[2,1-a]isoquinoline]	73.7
C=CCN(CC)c1c(-c2ccccc2C)nc2c3ccccc3ccn12 [Compound 222, 3-(N-Allyl-N-ethylamino)-2-(2-methylphenyl)imidazo[2,1-a]isoquinoline]	98.8

Source: patent US6020342A, “Fused imidazo[1,2-A]pyridines” (Shinnippon Pharmaceutical, Inc., priority 1995, dated 2000)
